Source: patent US4937390A, “Compound useful for the production of 3-deoxy-3-fluoro-myo-inositol” (University of Pittsburgh, priority 1989, dated 1990)

Molecular target: T1, myo-inositol transporter (Rattus norvegicus, UniProt Q80WA5)
T1 construct: PC12 cells were gently detached and maintained in a suspension culture; endogenous in cells; host or cells: PC12 cells
T1 sequence (Q80WA5 1-718): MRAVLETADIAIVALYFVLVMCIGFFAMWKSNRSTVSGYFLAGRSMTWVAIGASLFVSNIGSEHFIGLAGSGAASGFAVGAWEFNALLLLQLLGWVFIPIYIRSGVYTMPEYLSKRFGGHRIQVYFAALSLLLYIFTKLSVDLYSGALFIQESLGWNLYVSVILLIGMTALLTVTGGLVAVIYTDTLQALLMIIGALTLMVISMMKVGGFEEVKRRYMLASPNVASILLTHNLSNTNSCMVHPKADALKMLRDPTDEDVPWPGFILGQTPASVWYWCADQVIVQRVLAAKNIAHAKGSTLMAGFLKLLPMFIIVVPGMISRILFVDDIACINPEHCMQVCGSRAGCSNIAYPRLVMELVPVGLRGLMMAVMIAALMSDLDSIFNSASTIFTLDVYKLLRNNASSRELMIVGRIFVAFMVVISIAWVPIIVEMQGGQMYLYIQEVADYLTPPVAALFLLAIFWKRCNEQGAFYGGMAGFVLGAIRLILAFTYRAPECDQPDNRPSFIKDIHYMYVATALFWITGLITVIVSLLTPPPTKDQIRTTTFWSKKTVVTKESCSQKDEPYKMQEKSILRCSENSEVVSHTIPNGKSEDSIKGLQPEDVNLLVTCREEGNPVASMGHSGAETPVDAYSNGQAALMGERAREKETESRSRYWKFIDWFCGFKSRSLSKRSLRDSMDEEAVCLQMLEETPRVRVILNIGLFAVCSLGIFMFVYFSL
Experiment: [3H]myo-inositol uptake by the myo-inositol transporter in PC12 cells
Assay type: cell-based
Settings: for block of [3H]myo-inositol uptake / Maximal Transport Rate Vmax / Ki: PC12 cells; for Maximal Transport Rate Vmax: in the presence of 1 mM analog; for Ki: uptake studies in the presence of a fixed concentration (1 mM) of analog, read-out: Affinity Constant K (Ki of the analog)
Experimental: To determine if the effect of the fluoro-myo-inositol analogs might be mediated by the blockade of the myo-inositol transporter, which is responsible for uptake and accumulation of myo-inositol into the cell, the ability of these two compounds to block [^3 H]myo-inositol transport was studied directly.
The uptake of [^3 H]myo-inositol by the myo-inositol transporter was determined as follows:
PC12 cells were gently detached and maintained in a suspension culture in RPMI medium (both myo-inositol and serum free) at 37° C. ]^3 H]myo-inositol was added to this culture at a concentration of 1μCi/ml. Aliquots of this suspension were removed at the indicated time, diluted in 10 volumes of ice-cold PBS containing 10 mM unlabelled myo-inositol to stop the uptake process, centrifuged at 4° C. for 20 minutes at 50 xg. The cell pellet, which contained the transported [^3 H]myo-inositol, was dissolved in dilute NaOH and the radioactivity quantified by liquid scintillation counting.
The […] and Vmax of myoinositol were determined from LineweaverBurke plots
of the uptake of [^3 H]myoinositol (25 nM) in the presence of
increasing concentrations of unlabeled myoinositol in PC12 cells. The Ki
of the two fluoromyo-inositol analogs was determined by conducting the
uptake studies in the presence of a fixed concentration (1 mM) of each

affinity for the myo-inositol transporter, fold lower than the 3-fluoro-myo-inositol analog [fold] | block of [3H]myo-inositol uptake | Maximal Transport Rate Vmax [nmol/mg/h] | Ki [µM] | potency in blocking myo-inositol transport relative to the 1-fluoro myo-inositol analog [times] | Structure (SMILES)
5.7 | did block | 2.27 | 1430 |  | O[C@@H]1[C@@H](O)[C@@H](O)[C@@H](F)[C@H](O)[C@H]1O [1-deoxy-1-fluoro-myo-inositol]
 | did block | 2.27 | 250 | 5.7 | O[C@@H]1[C@@H](O)[C@H](O)[C@@H](F)[C@@H](O)[C@H]1O [3-deoxy-3-fluoro-myo-inositol]
